Test results: patent US7732582B2, “Benzonaphthacene glycoside derivative and use thereof” (FUJIFILM Corporation, priority 2004, dated 2010)
≈ marks a conversion by molar mass, not a printed value.

Tests used:
[1] = Solubility test in PBS(−) and PBS(+) solution; type: physicochemical; settings: for Solubility PBS(+): PBS(+) solution (with CaCl2 and MgCl2); for Solubility PBS (−): PBS(−) solution, ultrasonicated at 30° C. 10 minutes, room temperature 2 hours, absorbance at 500 nm
Description: PBS tablets (ICN Bioohemi Inc., containing 0.02 g of KH2PO4, 0.115 g of Na2HPO4, 0.02 g of KCl and […] of NaCl per tablet) were dissolved in distilled water (100 ml), and the solution was autoclaved to obtain a PBS(−) solution. The PBS(−) solution (80 ml) was added with CaCl2 dihydrate (1 g/L, 10 ml) and MgCl2 hexahydrate (1 g/L, 10 ml) to prepare a PBS(+) solution.
Each test compound (1 mg) was added to the PBS(−) solution (300 μl), and the mixture was ultrasonicated at 30° C. for 10 minutes, and left at room temperature for 2 hours. Then, the mixture was centrifuged (12,000 rpm, 10 minutes), the supernatant was diluted 50 times with 0.01 N sodium hydroxide solution, and absorbance of the diluted mixture was measured at 500 nm.
The solubility in the PBS(+) solution can also be obtained in a similar manner.

Mannan binding test = assay: Mannan binding test; parameters: species or system yeast; settings: PBS(+); incubation at 30° C. for 24 hours; ~0: below detection limit (trace)
Description: A PBS(+) solution (100 μl) of mannan (Sigma, derived from yeast, 50 μg/ml) and a PBS(+) solution (100 μl) of each test compound (40 μg/ml) were mixed, and incubated at 30° C. for 24 hours. Then, the mixture was centrifuged (14,000 rpm, 4° C., 5 minutes), the supernatant was diluted 10 times with 0.01 N sodium hydroxide solution, and absorbance of the diluted mixture was measured at 500 nm. The amount of the dissolved compound was calculated on the basis of E1 cm1%180 (500 nm), and the amount of the compound binding to mannan was calculated.

A. fumigatus IFO8866 = assay: Antifungal activity test, agar dilution method; type: cell-based; settings: for antifungal activity against A. fumigatus (in words): compared with control BMY28864; for MIC A. fumigatus IFO8866: yeast morphology agar, pH 7.0, 30° C. for 2 days
Description: (§1) Antifungal activity was measured by the agar dilution method utilizing the yeast morphology agar (0.15 M phosphate buffer, pH 7.0). Each microorganism was inoculated in an amount of 5 μl of 2×10^6 cells/ml solution per spot, and cultured at 30° C. for 2 days. The results were represented in terms of the minimum growth inhibitory concentration. As a control compound, BMY28864 was used.

C. albicans A9540 = assay: Antifungal activity test, agar dilution method; type: cell-based; settings: for antifungal activity against C. albicans (in words): compared with control BMY28864; for MIC C. albicans A9540: yeast morphology agar, pH 7.0, 30° C. for 2 days
Description: as §1

C. neoformans ATCC 90112 = assay: Antifungal activity test, agar dilution method; type: cell-based; settings: for antifungal activity against C. neoformans (in words): compared with control BMY28864; for MIC C. neoformans ATCC 90112: yeast morphology agar, pH 7.0, 30° C. for 2 days
Description: as §1

Compound | Solubility PBS(+) [1] | Solubility PBS (−) [1] | Binding to mannan (Mannan binding test) | MIC A. fumigatus IFO8866 (A. fumigatus IFO8866) [µg/mL] | MIC C. albicans A9540 (C. albicans A9540) [µg/mL] | MIC C. neoformans ATCC 90112 (C. neoformans ATCC 90112) [µg/mL] | antifungal activity against A. fumigatus (in words) (A. fumigatus IFO8866) | antifungal activity against C. albicans (in words) (C. albicans A9540) | antifungal activity against C. neoformans (in words) (C. neoformans ATCC 90112)
CN[C@@H]1[C@H](O[C@H](OCC(=O)O)C(=O)O)[C@@H](O)[C@H](O[C@H]2c3cc(C)c(C(=O)N[C@H](C)C(=O)O)c(O)c3-c3c(cc4c(c3O)C(=O)c3cc(OC)cc(O)c3C4=O)[C@@H]2O)O[C@@H]1C [PRM A-DCA] | 2,300 μg/ml | 2,250 μg/ml | 0.02 μg/1 μg of mannan | >50 | 6.3 (≈ 7.49 µM) | 12.5 (≈ 14.9 µM) | relatively low | maintained | maintained
COc1cc(O)c2c(c1)C(=O)c1c(cc3c(c1O)-c1c(cc(C)c(C(=O)N[C@H](CO)C(=O)O)c1O)[C@H](O[C@@H]1O[C@H](C)[C@H](N(C)C)[C@H](O[C@H](OCC(=O)O)C(=O)O)[C@H]1O)[C@H]3O)C2=O [BMY28864-DCA] | 37,500 μg/ml | 37,500 μg/ml | 0.28 μg/1 μg of mannan | >50 | 12.5 (≈ 14.4 µM) | 25 (≈ 28.7 µM) | relatively low | maintained | maintained
COc1cc(O)c2c(c1)C(=O)c1c(cc3c(c1O)-c1c(cc(C)c(C(=O)N[C@H](C)C(=O)O)c1O)[C@H](O[C@@H]1O[C@H](C)[C@H](N(C)C)[C@H](O[C@H](OCC(=O)O)C(=O)O)[C@H]1O)[C@H]3O)C2=O [N,N-Me2-PRM C-DCA] | 1,850 μg/ml | 1,400 μg/ml | ~0 μg/1 μg of mannan | 25 (≈ 29.2 µM) | 6.3 (≈ 7.37 µM) | 3.1 (≈ 3.63 µM) | lower than that of BMY28884 | almost equal to those of BMY28884 | almost equal to those of BMY28884

Continued, in another order:

Solubility PBS(+) [1] | Solubility PBS (−) [1] | Binding to mannan (Mannan binding test) | MIC A. fumigatus IFO8866 (A. fumigatus IFO8866) [µg/mL] | MIC C. albicans A9540 (C. albicans A9540) [µg/mL] | MIC C. neoformans ATCC 90112 (C. neoformans ATCC 90112) [µg/mL] | Compound | antifungal activity against A. fumigatus (in words) (A. fumigatus IFO8866) | antifungal activity against C. albicans (in words) (C. albicans A9540) | antifungal activity against C. neoformans (in words) (C. neoformans ATCC 90112)
950 µg/mL (≈ 1110 µM) | 1,900 μg/ml | 0.79 μg/1 μg of mannan | – | – | – | COc1cc(O)c2c(c1)C(=O)c1c(cc3c(c1O)-c1c(cc(C)c(C(=O)N[C@H](C)C(=O)O)c1O)[C@H](O[C@@H]1O[C@H](C)[C@H](N(C)C)[C@H](O[C@@H]4OC[C@@H](O)[C@H](O)[C@H]4O)[C@H]1O)[C@H]3O)C2=O [N,N-Me2-PRM C, reference compound] | – | – | –
16,000 μg/ml | 14,000 μg/ml | 0.81 μg/1 μg of mannan | 12.5 (≈ 14.4 µM) | 6.3 (≈ 7.23 µM) | 3.1 (≈ 3.56 µM) | COc1cc(O)c2c(c1)C(=O)c1c(cc3c(c1O)-c1c(cc(C)c(C(=O)N[C@H](CO)C(=O)O)c1O)[C@H](O[C@@H]1O[C@H](C)[C@H](N(C)C)[C@H](O[C@@H]4OC[C@@H](O)[C@H](O)[C@H]4O)[C@H]1O)[C@H]3O)C2=O [BMY28864, N,N′-dimethylpradimicin FA-2, reference compound] | – | – | –
68.5 µg/mL (≈ 81.5 µM) | 39.5 µg/mL (≈ 47 µM) | 0.89 μg/1 μg of mannan | – | – | – | CN[C@@H]1[C@H](O[C@@H]2OC[C@@H](O)[C@H](O)[C@H]2O)[C@@H](O)[C@H](O[C@H]2c3cc(C)c(C(=O)N[C@H](C)C(=O)O)c(O)c3-c3c(cc4c(c3O)C(=O)c3cc(OC)cc(O)c3C4=O)[C@@H]2O)O[C@@H]1C [PRM A, Pradimicin (PRM) A, reference compound] | – | – | –
